Data published in US8598128B2, “Fructosylated puerarin, and preparation method and use thereof” (priority 2010, dated 2013).
“Also recorded” adds a separate entry of the source.

Legend:
[1] = system: human chronmyelogenors leukemia cell strain K562; experiment: K562 cell toxicity test (MTT); format: cell-based; conditions: 48 h; for OD value: MTT 490 nm
Protocol: K-562 cells were cultured in an incubator at 37° C. with 5% CO2 saturated humidity in the RPMI-1640 complete culture medium containing inactivated calf serum with volume fraction of 10%, 100 U penicillin and streptomycin. […] For each drug concentration, 6 complex cases were provided. Put back the culture plate into the cell incubator, after 48 h, add 20 μL MTT (5 mg/mL) solution and continue to incubate it in the incubator for 4 h, then each case was added with triple liquid 100 μL, put it overnight to allow the crystal to fully dissolve. Vibrate it with oscillator for 20 min and determine the light absorption at 490 nm with a fully automatic ELISA instrument, and calculate the average suppression rate, suppression rate (%)=(control group A490−test group A490)/control group A490), the experiment was repeated three times. Relevant analysis and Student t tests in Microsoft Excel 2003 were used, and data are presented in X±SD.

myocardio ischemia mice = experiment: Heart rate in pituitrin acute myocardial ischemia model; format: in vivo, Sprague-Dawley mice (SD mice)
Excerpt: Embodiment 6: […] Pituitrin injection was purchased from Nanjing Xinbai Pharmaceutical Co., Ltd., normal saline injection from Nanjing Xiaoying Pharmaceutical Co., Ltd., and DMSO, PG, and anhydrous ethanol were of chromatographic class. […] The data were presented with, and tested with t. P<0.05 indicates substantial difference, P<0.01 indicates very substantial difference; and P<0.001 indicates extremely substantial difference.

[2] = Metabokinetic experiment in blood after caudal vein injection; conditions: 50 mg/kg caudal vein, n = 5
Protocol: Embodiment 5: Metabokinetic Experiment of monofructosyl-β(2,6)-Puerarin in Blood
In HPLC analysis, DIONEX was used, with chromatographic column as Discovery HS C18 ([…], 5 μm), feeding specimen volume 20 μL, column temperature 30° C., the detector was UVD170U, with detection wavelength of 254 nm, flowing phase: A, water, B, chromatographic class methanol, A:B=80:20, at flow rate of 1 mL/min.
Sprague-Dawley mice (SD mice), with weight of 180-220 g, male and female in half, provided by Medical Experiment Center of Nantong University, with production permit No.: SCXK (Su) 20080010.
SD mice were randomly divided into 2 groups of 5 each, fasting for 12 hours before experiment. Puerarin and monofructosyl-β(2,6)-puerarin were respectively dissolved in 20% 1,2-PG normal saline, and injected into mouse caudal vein at a dosage of 50 mg/kg. After injection, at t=0 min, 4 min, 7 min, 17 min, 40 min, 60 min, 120 min and 180 min, 0.5 mL of blood was taken from orbit and put into centrifugal tubes treated with liquaemin, then it was immediately separated by centrifuging at 3000 rpm for 15 min, to separate out plasma for analysis.
Plasma of 100 μL was precisely taken and put into test tube, and 400 μL of methanol sedimented protein was added, they were mixed on vortex mixer for 5 min, then centrifuged at 10000 rpm for 10 min, and the supernatant was used for HPLC analysis.
The plasma concentration of the puerarin and monofructosyl-β(2,6)-puerarin specimens prepared as per 3.2 was obtained by calculation with external reference method. The data obtained were analyzed using pharmacokinetics statistic software.

[3] = system: human breast cancer cell strain MDA-MB-231; experiment: MDA-MB-231 cell toxicity test (MTT); format: cell-based; conditions: 48 h; for OD value: MTT 490 nm
Protocol: MDA-MB-231 cells were cultured in an incubator at 37° C. with 5% CO2 saturated humidity in the RPMI-1640 complete culture medium containing inactivated fetal calf serum with volume fraction of 10%, 100 U penicillin and streptomycin. Take MDA-MB-231 cells in logarithmic phase (primary culture bottle) and discard the culture solution. […] Prepare the suspended solution of cells and adjust the cell concentration with appropriate amount of complete culture medium to 3×10^4/mL. Fed the cells into a tissue culture plate 96, with cell suspended liquid of 180 μL in each case, and put the culture plate into a cell incubator (37° C., 5% CO2) for conventional culture. When cells grew to 50%-70%, add drug liquid of different concentration. […] For DMSO solvent control group, add 20 μL of PBS containing […] and for the blank group, add 20 μL of PBS. For each drug concentration, 6 complex cases were provided. Put back the culture plate into the cell incubator, after 48 h, add 20 μL MTT (5 mg/mL) solution and continue to incubate it in the incubator for 4 h, then remove the supernatant and dry it with tissue, add 200 μL DMSO into each case and vibrate it in the rocker without light for 15 min, to allow the crystal to fully dissolve. Determine the light absorption at 490 nm with a fully automatic ELISA instrument, and calculate the average suppression rate, suppression rate (%)=(control group A490−test group A490)/control group A490), the experiment was repeated three times. Relevant analysis and Student t tests in Microsoft Excel 2003 were used, and data are presented in X±SD.

Work on O=c1c(-c2ccc(O)cc2)coc2c([C@@H]3O[C@H](CO[C@]4(CO)O[C@H](CO)[C@@H](O)[C@@H]4O)[C@@H](O)[C@H](O)[C@H]3O)c(O)ccc12 [monofructosyl-β(2,6)-puerarin] yielded an Average suppression rate ([1]; 1 μmol/L) of 7.85%, an OD value ([1]; 1 μmol/L) of 0.950 ± 0.041 and an Average suppression rate ([1]; 5 μmol/L) of 7.53%. For the same molecule, the OD value ([1]; 5 μmol/L) was 0.950 ± 0.018, the Average suppression rate ([1]; 10 μmol/L) was 6.76% and the OD value ([1]; 10 μmol/L) was 0.958 ± 0.022. For the same molecule, the Average suppression rate ([1]; 20 μmol/L) was 6.16%, the OD value ([1]; 20 μmol/L) was 0.963 ± 0.055 and the Average suppression rate ([1]; 50 μmol/L) was 11.14%. The OD value ([1]; 50 μmol/L) was 0.913 ± 0.048, the Average suppression rate ([1]; 100 μmol/L) was 16.41% and the OD value ([1]; 100 μmol/L) was 0.858 ± 0.028. The Average suppression rate ([1]; 150 μmol/L) was 29.84%, the OD value ([1]; 150 μmol/L) was 0.720 ± 0.055 and the Average suppression rate ([1]; 200 μmol/L) was 46.41%. It also gave an OD value ([1]; 200 μmol/L) of 0.550 ± 0.086, a Heart rate (myocardio ischemia mice; 12.5 mg/kg, 5 s) of 433 ± 63 time · min^−1 and a Heart rate (myocardio ischemia mice; 12.5 mg/kg, 10 s) of 416 ± 79 time · min^−1. The Heart rate (myocardio ischemia mice; 12.5 mg/kg, 15 s) was 411 ± 75 time · min^−1, the Heart rate (myocardio ischemia mice; 12.5 mg/kg, 30 s) was 389 ± 72 time · min^−1 and the Heart rate (myocardio ischemia mice; 12.5 mg/kg, 1 min) was 347 ± 71 time · min^−1. For the same molecule, the Heart rate (myocardio ischemia mice; 12.5 mg/kg, 2 min) was 339 ± 57 time · min^−1, the Heart rate (myocardio ischemia mice; 12.5 mg/kg, 5 min) was 349 ± 50 time · min^−1 and the Heart rate (myocardio ischemia mice; 12.5 mg/kg, 10 min) was 395 ± 45 time · min^−1. The Heart rate (myocardio ischemia mice; 12.5 mg/kg, Normal) was 403 ± 54 time · min^−1, the Heart rate (myocardio ischemia mice; 25 mg/kg, 5 s) was 476 ± 65 time · min^−1 and the Heart rate (myocardio ischemia mice; 25 mg/kg, 10 s) was 442 ± 81 time · min^−1. For the same molecule, the Heart rate (myocardio ischemia mice; 25 mg/kg, 15 s) was 405 ± 88 time · min^−1, the Heart rate (myocardio ischemia mice; 25 mg/kg, 30 s) was 428 ± 65 time · min^−1 and the Heart rate (myocardio ischemia mice; 25 mg/kg, 1 min) was 403 ± 54 time · min^−1. It also gave a Heart rate (myocardio ischemia mice; 25 mg/kg, 2 min) of 386 ± 41 time · min^−1, a Heart rate (myocardio ischemia mice; 25 mg/kg, 5 min) of 375 ± 37 time · min^−1 and a Heart rate (myocardio ischemia mice; 25 mg/kg, 10 min) of 420 ± 43 time · min^−1. It also gave a Heart rate (myocardio ischemia mice; 25 mg/kg, Normal) of 474 ± 68 time · min^−1, a Heart rate (myocardio ischemia mice; 50 mg/kg, 5 s) of 485 ± 95 time · min^−1 and a Heart rate (myocardio ischemia mice; 50 mg/kg, 10 s) of 423 ± 84 time · min^−1. For the same molecule, the Heart rate (myocardio ischemia mice; 50 mg/kg, 15 s) was 420 ± 76 time · min^−1, the Heart rate (myocardio ischemia mice; 50 mg/kg, 30 s) was 378 ± 34 time · min^−1 and the Heart rate (myocardio ischemia mice; 50 mg/kg, 1 min) was 327 ± 89 time · min^−1. It also gave a Heart rate (myocardio ischemia mice; 50 mg/kg, 2 min) of 339 ± 45 time · min^−1, a Heart rate (myocardio ischemia mice; 50 mg/kg, 5 min) of 347 ± 55 time · min^−1 and a Heart rate (myocardio ischemia mice; 50 mg/kg, 10 min) of 435 ± 72 time · min^−1. The Heart rate (myocardio ischemia mice; 50 mg/kg, Normal) was 483 ± 91 time · min^−1, the “effect on heart rate restoration in words” value (myocardio ischemia mice; 12.5, 25 and 50 mg/kg) was “has certain therapy effect on the heart disorder caused by myocardial ischemia; also recorded: has certain therapy effect on the heart disorder caused by myocardio ischemia” and the “AUC (0-t)” value [2] was 5523.446 ± 688.104 mg/Lxmin. For the same molecule, the “CL (whole body clearance)” value [2] was 9 ± 1 mL/min/kg, the “MRT (0-t)” value [2] was 25.707 ± 2.324 min and the “MRT (0-∞)” value [2] was 27.453 ± 2.976 min. For the same molecule, the Y [2] was 0.256 ± 0.032 L/kg, the “t½ (half life of clearance)” value [2] was 19.741 ± 2.34 min and the Average suppression rate ([3]; 0.5 μmol/L) was 3.68%. For the same molecule, the OD value ([3]; 0.5 μmol/L) was 0.676 ± 0.021, the Average suppression rate ([3]; 1 μmol/L) was 5.02% and the OD value ([3]; 1 μmol/L) was 0.666 ± 0.069. The Average suppression rate ([3]; 5 μmol/L) was 3.47%, the OD value ([3]; 5 μmol/L) was 0.677 ± 0.081 and the Average suppression rate ([3]; 10 μmol/L) was 4.20%. The OD value ([3]; 10 μmol/L) was 0.672 ± 0.085, the Average suppression rate ([3]; 50 μmol/L) was 20.17% and the OD value ([3]; 50 μmol/L) was 0.560 ± 0.062. It also gave an Average suppression rate ([3]; 100 μmol/L) of 28.70%, an OD value ([3]; 100 μmol/L) of 0.500 ± 0.068 and an Average suppression rate ([3]; 150 μmol/L) of 44.04%. It also gave an OD value ([3]; 150 μmol/L) of 0.392 ± 0.041, an Average suppression rate ([3]; 200 μmol/L) of 59.42% and an OD value ([3]; 200 μmol/L) of 0.285 ± 0.067.
